In patent US6790829B1, “Cyclic decapeptide antibiotics” (priority 1998, dated 2004):
Converted amounts (≈) assume the structure as drawn. Where a SMILES comes first, the peptide text is derived from it. [ ]: non-standard residue; d: D form. Orn = NCCC[C@H](N)C(=O)O

Tests used:
[1] = tested on: Enterococcus faecalis (13242); assay: microbe, parasite or virus in culture; format: cell-based; conditions: for BROTH DILUTION MIC: 13242
Method: (§1) Antimicrobial activity was determined by macrobroth dilution antimicrobial susceptibility testing. Solutions of the cyclic decapeptides (Loloatin A, B and C) and a control (vancomycin) were prepared in tryptic soy broth. Initially, a 100 μg/ml solution of each compound was tested. When inhibition of target microorganism was detected, serial two-fold dilutions of the compound in broth were tested to determine the minimal inhibitory concentration (MIC) of each compound for each target organisms. Target organisms tested are listed below in Table 3, and included methicillin resistant Staphylococcus aureus, vancomycin resistant Enterococcus sp. Escherichia coli, multiply drug resistant Pseudomonas aeruginosa; Stenofrophomonas maltophilia and Candida albicans. Turbidity standardized suspensions of each organism were prepared according to accepted protocols using a 0.5 McFarland turbidity standard, and these standardized suspensions were used to inoculate the tubes containing the compounds. Activity of a compound was indicated by lack of growth (turbidity) of one or more of the target organisms. See Woods, G. L. and Washington, J. A., “Antibacterial susceptibility tests: dilution and disk diffusion methods, Manual of Clinical Microbiology (6th Ed.), Murray, Baron, Pfaller, Tenover and Yolken Eds.), ASM Press, Washington D.C., 1995, pp. 1327-1341. Other compounds of the invention may be screened and evaluated for antibiotic activity in the same manner.

[2] = tested on: Enterococcus faecalis (ATCC51299); assay: microbe, parasite or virus in culture; format: cell-based; conditions: for BROTH DILUTION MIC: ATCC51299
Method: as §1

[3] = tested on: Enterococcus faecium (19007); assay: microbe, parasite or virus in culture; format: cell-based; conditions: for BROTH DILUTION MIC: 19007
Method: as §1

[4] = tested on: Enterococcus faecium (F4641); assay: microbe, parasite or virus in culture; format: cell-based; conditions: for BROTH DILUTION MIC: F4641
Method: as §1

[5] = tested on: Enterococcus gallinarum; assay: microbe, parasite or virus in culture; format: cell-based
Method: as §1

[6] = tested on: S. aureus (MRSA); format: cell-based, Staphylococcus aureus
Method: as §1

[7] = tested on: Candida albicans; format: cell-based
Method: as §1

[8] = tested on: Enterobacter cloacae; format: cell-based
Method: as §1

[9] = tested on: Escherichia coli; format: cell-based
Method: as §1

[10] = tested on: Group A Streptococcus (19615); format: cell-based
Method: as §1

[11] = tested on: Group B Streptococcus (12401); format: cell-based
Method: as §1

[12] = tested on: Pseudomonas aeruginosa; format: cell-based
Method: as §1

[13] = tested on: Stenotrophomonas maltophilia; format: cell-based
Method: as §1

[14] = tested on: MRSA 034; assay: In-vitro Microbiology of Fraction 73 (MIC/MBZ); format: cell-based, Staphylococcus aureus
Text: (§2) The complex reaction mixture from Method C was chromatographed on reverse phase HPLC, and a microtiter plate assay was run throughout the entire chromatogram to identify active materials.

[15] = tested on: P.a. 028; assay: In-vitro Microbiology of Fraction 73 (MIC/MBZ); format: cell-based, Pseudomonas aeruginosa
Text: as §2

[16] = tested on: Candida albicans; format: cell-based; remark: listed apart in the source
Method: (§3) Antimicrobial activity was determined by macrobroth dilution antimicrobial susceptibility testing. A solution of Loloatin B was prepared in tryptic soy broth. Initially, a […] solution of the peptide was tested. If inhibition of a target microorganism was detected, serial two-fold dilutions (in broth) of the Loloatin B solutions were tested to determine the minimal inhibitory concentration (MIC) of Loloatin B for each target organism Target organisms tested are identified in Table 2. Turbidity standardized suspensions of each organism were prepared according to accepted protocols using a 0.5 McFarland turbidity standard, and these standardized suspensions were used to inoculate a tube containing Loloatin B. Activity of Loloatin B was indicated by lack of growth (turbidity) of one or more of the target organisms.
(§4) See Woods, G. L. et al., “Antibacterial susceptibility tests: dilution and disk diffusion methods, Manual of Clinical Microbiology (6^thEd.), Murray, Baron, Pfaller, Tenover and Yolken (Eds.), ASM Press, Washington D.C., 1995, pp. 1327-1341.

[17] = tested on: Enterobacter cloacae; format: cell-based; remark: listed apart in the source
Method: as §3, §4

[18] = tested on: Escherichia coli; format: cell-based; remark: listed apart in the source
Method: as §3, §4

[19] = tested on: Methicillin resistant Staphylococcus aureus; format: cell-based
Method: as §3, §4

[20] = tested on: Penicillin resistant Streptococcus pneumoniae; format: cell-based
Method: as §3, §4

[21] = tested on: Pseudomonas aeruginosa; format: cell-based; remark: listed apart in the source
Method: as §3, §4

[22] = tested on: Vancomycin resistant Enterococcus faecalis; format: cell-based
Method: as §3, §4

[23] = tested on: Xanthomonas maltophilia; format: cell-based
Method: as §3, §4

[24] = Microtiter plate assay of HPLC fractions to identify active materials; format: cell-based; conditions: reverse phase HPLC fractions of Method C cyclization mixture
Text: as §2

[25] = Enterococcus faecium, read-out: BROTH DILUTION MIC

BROTH DILUTION MIC [6]	BROTH DILUTION MIC [1]	BROTH DILUTION MIC [2]	BROTH DILUTION MIC [3]	BROTH DILUTION MIC [4]	BROTH DILUTION MIC [5]	BROTH DILUTION MIC [7]	BROTH DILUTION MIC [8]	BROTH DILUTION MIC [9]	BROTH DILUTION MIC [10]	BROTH DILUTION MIC [11]	BROTH DILUTION MIC [12]	BROTH DILUTION MIC [13]	SMILES	also measured
													CN[C@H](CC(C)C)C(=O)N[C@H]1C(=O)N[C@@H](CC(N)=O)C(=O)N[C@H]2C(=O)N[C@H]3C(=O)N[C@H](C(=O)N[C@H](C(=O)O)c4cc(O)cc(O)c4-c4cc3ccc4O)[C@H](O)c3ccc(c(Cl)c3)Oc3cc2cc(c3O[C@@H]2O[C@H](CO)[C@@H](O)[C@H](O)[C@H]2O[C@H]2C[C@](C)(N)[C@H](O)[C@H](C)O2)Oc2ccc(cc2Cl)[C@H]1O [Vancomycin, vancomycin, reference compound]	MIC ([1]; Enterococcus faecalis, read-out: BROTH DILUTION MIC): > 100 µg/mL; MIC ([2]; Enterococcus faecalis, ATCC51299, read-out: BROTH DILUTION MIC): 20 µg/mL (≈ 13.8 µM); MIC [3, 25]: > 100 µg/mL; MIC [4, 25]: 6 µg/mL (≈ 4.14 µM); MIC ([5]; Enterococcus gallinarum, GALLINARUM, read-out: BROTH DILUTION MIC): 6 µg/mL (≈ 4.14 µM)
2 to 4 µg/mL	2 to 4 µg/mL	2 to 4 µg/mL	2 to 4 µg/mL	2 to 4 µg/mL	2 to 4 µg/mL	16 µg/mL	>100 µg/mL	>100 µg/mL	<0.25 µg/mL	<1 µg/mL	>100 µg/mL	>100 µg/mL	CC(C)C[C@@H]1NC(=O)[C@H](CCCN)NC(=O)[C@H](C(C)C)NC(=O)[C@H](Cc2ccc(O)cc2)NC(=O)[C@H](CC(=O)O)NC(=O)[C@H](CC(N)=O)NC(=O)[C@@H](Cc2ccccc2)NC(=O)[C@H](Cc2ccccc2)NC(=O)[C@@H]2CCCN2C(=O)[C@@H](Cc2ccc(O)cc2)NC1=O [Loloatin A, cyclo[L-Val-L-Orn-L-Leu-D-Tyr-L-Pro-L-Phe-D-Phe-L-Asn-L-Asp-L-Tyr]] (cyclo(DYV[Orn]L[dY]PF[dF]N))	
0.5 to 1 µg/mL	1 to 2 µg/mL	2 to 4 µg/mL	2 µg/mL	2 µg/mL	1 to 2 µg/mL	16 µg/mL	>100 µg/mL	1 to 2 µg/mL	<0.25 µg/mL	<0.25 µg/mL	>100 µg/mL	>100 µg/mL	CC(C)C[C@@H]1NC(=O)[C@H](CCCN)NC(=O)[C@H](C(C)C)NC(=O)[C@H](Cc2c[nH]c3ccccc23)NC(=O)[C@H](CC(=O)O)NC(=O)[C@H](CC(N)=O)NC(=O)[C@@H](Cc2ccccc2)NC(=O)[C@H](Cc2c[nH]c3ccccc23)NC(=O)[C@@H]2CCCN2C(=O)[C@@H](Cc2ccc(O)cc2)NC1=O [Loloatin C, cyclo [L-Val-L-Orn-L-Leu-D-Tyr-L-Pro-L-Trp-D-Phe-L-Asn-L-Asp-L-Trp]] (cyclo(DWV[Orn]L[dY]PW[dF]N))	activity against Escherichia coli (in words) ([9]; Escherichia coli, a gram negative rod bacteria, comment on Table 3): excellent activity

SMILES	BROTH DILUTION MIC [6]	BROTH DILUTION MIC [1]	BROTH DILUTION MIC [2]	BROTH DILUTION MIC [3]	BROTH DILUTION MIC [4]	BROTH DILUTION MIC [5]	BROTH DILUTION MIC [7]	BROTH DILUTION MIC [8]	BROTH DILUTION MIC [9]	BROTH DILUTION MIC [10]	BROTH DILUTION MIC [11]	BROTH DILUTION MIC [12]	BROTH DILUTION MIC [13]	also measured
CC(C)C[C@@H]1NC(=O)[C@H](CCCN)NC(=O)[C@H](C(C)C)NC(=O)[C@H](Cc2c[nH]c3ccccc23)NC(=O)[C@H](CC(=O)O)NC(=O)[C@H](CC(N)=O)NC(=O)[C@@H](Cc2ccccc2)NC(=O)[C@H](Cc2ccccc2)NC(=O)[C@@H]2CCCN2C(=O)[C@@H](Cc2ccc(O)cc2)NC1=O [Loloatin B, cyclo [L-Val-L-Orn-L-Leu-D-Tyr-L-Pro-L-Phe-D-Phe-L-Asn-L-Asp-L-Trp]] (cyclo(V[Orn]L[dY]PF[dF]NDW))	2 to 4 µg/mL	2 to 4 µg/mL	2 to 4 µg/mL	2 to 4 µg/mL	2 to 4 µg/mL	2 to 4 µg/mL	16 µg/mL	>100 µg/mL	>100 µg/mL	<0.25 µg/mL	<1 µg/mL		>100 µg/mL	MBZ [14]: 8.0; MIC [14]: 8.0; MBZ [15]: >128; MIC [15]: >128; Minimum Inhibitory Concentration [16]: >100 µg/mL; Minimum Inhibitory Concentration [17]: >100 µg/mL; Minimum Inhibitory Concentration [18]: >100 µg/mL; Minimum Inhibitory Concentration [19]: <2 µg/mL; Minimum Inhibitory Concentration [20]: <2 µg/mL; Minimum Inhibitory Concentration [21]: >100 µg/mL; Minimum Inhibitory Concentration [22]: <2 µg/mL; Minimum Inhibitory Concentration [23]: >100 µg/mL; biological activity of HPLC fraction (in words) [24]: exhibited the desired biological activity
